Tested on: 323965-272-R-J2-PDC complex spheroid growth, % test/control
Experiment: Anticancer human tumor 323965-272-R-J2-PDC patient-derived pancreatic carcinoma cell line growth inhibition [Asc]
Details: for IC50: curve of first compound; for viability, T/C: stronger effect = lower value
Procedure, shortened: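 Complex spheroids combining tumor cells with HUVEC endothelial cells and human MSCs, at 37 degrees C, 5% CO2; agents tested alone or combined, half-log dilutions from at or near clinical Cmax, or 10 microM if Cmax unknown.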

[1] = second compound 0.0316 µM, first compound 0.0316 µM
[2] = second compound 0.0316 µM, first compound 0.1 µM
[3] = second compound 0.0316 µM, first compound 0.316 µM
[4] = second compound 0.0316 µM, first compound 1 µM
[5] = second compound 0.1 µM, first compound 0.0316 µM
[6] = second compound 0.1 µM, first compound 0.1 µM
[7] = second compound 0.1 µM, first compound 0.316 µM
[8] = second compound 0.1 µM, first compound 1 µM
[9] = second compound 0.316 µM, first compound 0.0316 µM
[10] = second compound 0.316 µM, first compound 0.1 µM
[11] = second compound 0.316 µM, first compound 0.316 µM
[12] = second compound 0.316 µM, first compound 1 µM
[13] = second compound 1 µM, first compound 0.0316 µM
[14] = second compound 1 µM, first compound 0.1 µM
[15] = second compound 1 µM, first compound 0.316 µM
[16] = second compound 1 µM, first compound 1 µM
[17] = second compound 3.16 µM, first compound 0.0316 µM
[18] = second compound 3.16 µM, first compound 0.1 µM
[19] = second compound 3.16 µM, first compound 0.316 µM
[20] = second compound 3.16 µM, first compound 1 µM
[21] = second compound 10 µM, first compound 0.0316 µM
[22] = second compound 10 µM, first compound 0.1 µM
[23] = second compound 10 µM, first compound 0.316 µM
[24] = second compound 10 µM, first compound 1 µM
[25] = second compound 0.0316 µM, first compound 0.00316 µM
[26] = second compound 0.0316 µM, first compound 0.01 µM
[27] = second compound 0.1 µM, first compound 0.00316 µM
[28] = second compound 0.1 µM, first compound 0.01 µM
[29] = second compound 0.316 µM, first compound 0.00316 µM
[30] = second compound 0.316 µM, first compound 0.01 µM
[31] = second compound 1 µM, first compound 0.00316 µM
[32] = second compound 1 µM, first compound 0.01 µM
[33] = second compound 3.16 µM, first compound 0.00316 µM
[34] = second compound 3.16 µM, first compound 0.01 µM
[35] = second compound 10 µM, first compound 0.00316 µM
[36] = second compound 10 µM, first compound 0.01 µM
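Also: compound exposure lasted 7 days starting three days after spheroid seeding.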
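For viability, T/C in this document: 100% = DMSO vehicle control wells with viability set relative to vehicle.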

Question: C#Cc1c(F)ccc2cc(O)cc(-c3ncc4c(N5CC6CCC(C5)N6)nc(OCC56CCCN5CC(F)C6)nc4c3F)c12 (stereo unspecified) + Cc1c(S(C)(=O)=O)c(-c2cc(F)cc(N3CCN(c4ccc(NS(=O)(=O)c5ccc(NC(CCN6CCC(C(=O)OCCCP(=O)(O)O)CC6)CSc6ccccc6)c(S(=O)(=O)C(F)(F)F)c5)cc4)CC3)c2)c(-c2ccc(Cl)cc2)n1C(C)C was tested. Which IC50 (second compound 0.0316 µM) did it give?
Answer: > 10000 nM

Question: What about the IC50 (second compound 0.1 µM) of the same molecule?
Answer: > 10000 nM

Question: And the IC50 (second compound 0.316 µM)?
Answer: 8150 nM

Question: And the IC50 (second compound 1 µM)?
Answer: 6920 nM

Question: What about the IC50 (second compound 3.16 µM) of the same molecule?
Answer: 4120 nM

Question: What about the IC50 (second compound 10 µM) of the same molecule?
Answer: 3590 nM

Question: And the viability, T/C [1]?
Answer: 99.9%

Question: And the viability, T/C [2]?
Answer: 98.2%

Question: And the viability, T/C [3]?
Answer: 109%

Question: And the viability, T/C [4]?
Answer: 108%

Question: And the viability, T/C (second compound 0.0316 µM, first compound 3.16 µM)?
Answer: 79.4%

Question: And the viability, T/C (second compound 0.0316 µM, first compound 10 µM)?
Answer: 58.2%

Question: What about the viability, T/C [5] of the same molecule?
Answer: 100%

Question: And the viability, T/C [6]?
Answer: 111%

Question: What about the viability, T/C [7] of the same molecule?
Answer: 93.2%

Question: And the viability, T/C [8]?
Answer: 93.2%

Question: What about the viability, T/C (second compound 0.1 µM, first compound 3.16 µM) of the same molecule?
Answer: 75.7%

Question: What about the viability, T/C (second compound 0.1 µM, first compound 10 µM) of the same molecule?
Answer: 51.4%

Question: What about the viability, T/C [9] of the same molecule?
Answer: 97.8%

Question: And the viability, T/C [10]?
Answer: 99.1%

Question: What about the viability, T/C [11] of the same molecule?
Answer: 98.2%

Question: And the viability, T/C [12]?
Answer: 90.6%

Question: What about the viability, T/C (second compound 0.316 µM, first compound 3.16 µM) of the same molecule?
Answer: 73.9%

Question: And the viability, T/C (second compound 0.316 µM, first compound 10 µM)?
Answer: 45%

Question: And the viability, T/C [13]?
Answer: 87.1%

Question: What about the viability, T/C [14] of the same molecule?
Answer: 87.9%

Question: What about the viability, T/C [15] of the same molecule?
Answer: 88.4%

Question: What about the viability, T/C [16] of the same molecule?
Answer: 80.8%

Question: What about the viability, T/C (second compound 1 µM, first compound 3.16 µM) of the same molecule?
Answer: 67.9%

Question: And the viability, T/C (second compound 1 µM, first compound 10 µM)?
Answer: 41.5%

Question: And the viability, T/C [17]?
Answer: 74.6%

Question: And the viability, T/C [18]?
Answer: 73.8%

Question: What about the viability, T/C [19] of the same molecule?
Answer: 80.7%

Question: What about the viability, T/C [20] of the same molecule?
Answer: 76.5%

Question: And the viability, T/C (second compound 3.16 µM, first compound 3.16 µM)?
Answer: 56.2%

Question: What about the viability, T/C (second compound 3.16 µM, first compound 10 µM) of the same molecule?
Answer: 29.3%

Question: And the viability, T/C [21]?
Answer: 72%

Question: And the viability, T/C [22]?
Answer: 73.6%

Question: And the viability, T/C [23]?
Answer: 59.9%

Question: What about the viability, T/C [24] of the same molecule?
Answer: 72%

Question: And the viability, T/C (second compound 10 µM, first compound 3.16 µM)?
Answer: 50.9%

Question: What about the viability, T/C (second compound 10 µM, first compound 10 µM) of the same molecule?
Answer: 24.4%

Question: How did the IC50 (second compound 0.0316 µM) turn out when NC1CCC(NC2CC2c2ccccc2)CC1 (stereo unspecified) + Cc1c(S(C)(=O)=O)c(-c2cc(F)cc(N3CCN(c4ccc(NS(=O)(=O)c5ccc(NC(CCN6CCC(C(=O)OCCCP(=O)(O)O)CC6)CSc6ccccc6)c(S(=O)(=O)C(F)(F)F)c5)cc4)CC3)c2)c(-c2ccc(Cl)cc2)n1C(C)C was run?
Answer: > 100 nM

Question: What about the IC50 (second compound 0.1 µM) of the same molecule?
Answer: > 100 nM

Question: And the IC50 (second compound 0.316 µM)?
Answer: > 100 nM

Question: And the IC50 (second compound 1 µM)?
Answer: > 100 nM

Question: And the IC50 (second compound 3.16 µM)?
Answer: > 100 nM

Question: What about the IC50 (second compound 10 µM) of the same molecule?
Answer: > 100 nM

Question: What about the viability, T/C (second compound 0.0316 µM, first compound 0.000316 µM) of the same molecule?
Answer: 105%

Question: What about the viability, T/C (second compound 0.0316 µM, first compound 0.001 µM) of the same molecule?
Answer: 107%

Question: And the viability, T/C [25]?
Answer: 107%

Question: What about the viability, T/C [26] of the same molecule?
Answer: 109%

Question: And the viability, T/C [1]?
Answer: 122%

Question: And the viability, T/C [2]?
Answer: 112%

Question: What about the viability, T/C (second compound 0.1 µM, first compound 0.000316 µM) of the same molecule?
Answer: 105%

Question: And the viability, T/C (second compound 0.1 µM, first compound 0.001 µM)?
Answer: 99.2%

Question: What about the viability, T/C [27] of the same molecule?
Answer: 120%

Question: And the viability, T/C [28]?
Answer: 113%

Question: What about the viability, T/C [5] of the same molecule?
Answer: 109%

Question: What about the viability, T/C [6] of the same molecule?
Answer: 99%

Question: And the viability, T/C (second compound 0.316 µM, first compound 0.000316 µM)?
Answer: 108%

Question: What about the viability, T/C (second compound 0.316 µM, first compound 0.001 µM) of the same molecule?
Answer: 101%

Question: And the viability, T/C [29]?
Answer: 96.6%

Question: And the viability, T/C [30]?
Answer: 103%

Question: What about the viability, T/C [9] of the same molecule?
Answer: 104%

Question: And the viability, T/C [10]?
Answer: 102%

Question: What about the viability, T/C (second compound 1 µM, first compound 0.000316 µM) of the same molecule?
Answer: 94.4%

Question: What about the viability, T/C (second compound 1 µM, first compound 0.001 µM) of the same molecule?
Answer: 100%

Question: What about the viability, T/C [31] of the same molecule?
Answer: 93.9%

Question: And the viability, T/C [32]?
Answer: 106%

Question: What about the viability, T/C [13] of the same molecule?
Answer: 96.5%

Question: And the viability, T/C [14]?
Answer: 92.2%

Question: And the viability, T/C (second compound 3.16 µM, first compound 0.000316 µM)?
Answer: 84.5%

Question: What about the viability, T/C (second compound 3.16 µM, first compound 0.001 µM) of the same molecule?
Answer: 82.1%

Question: What about the viability, T/C [33] of the same molecule?
Answer: 81.5%

Question: And the viability, T/C [34]?
Answer: 76.5%

Question: And the viability, T/C [17]?
Answer: 90%

Question: And the viability, T/C [18]?
Answer: 81.2%

Question: What about the viability, T/C (second compound 10 µM, first compound 0.000316 µM) of the same molecule?
Answer: 83%

Question: What about the viability, T/C (second compound 10 µM, first compound 0.001 µM) of the same molecule?
Answer: 70.1%

Question: What about the viability, T/C [35] of the same molecule?
Answer: 66.5%

Question: And the viability, T/C [36]?
Answer: 84%

Question: And the viability, T/C [21]?
Answer: 81.9%

Question: And the viability, T/C [22]?
Answer: 73%

Question: Which results are given for COc1c(OCCCN2CCOCC2)ccc2c3n(c(=NC(=O)c4cnc(N)nc4)nc12)CCN3 + Cc1c(S(C)(=O)=O)c(-c2cc(F)cc(N3CCN(c4ccc(NS(=O)(=O)c5ccc(NC(CCN6CCC(C(=O)OCCCP(=O)(O)O)CC6)CSc6ccccc6)c(S(=O)(=O)C(F)(F)F)c5)cc4)CC3)c2)c(-c2ccc(Cl)cc2)n1C(C)C?
Answer: IC50 (second compound 0.0316 µM): 166 nM; IC50 (second compound 0.1 µM): 180 nM; IC50 (second compound 0.316 µM): 116 nM; IC50 (second compound 1 µM): 106 nM; IC50 (second compound 3.16 µM): 77.1 nM; IC50 (second compound 10 µM): 36.5 nM; viability, T/C [25]: 110%; viability, T/C [26]: 97.1%; viability, T/C [1]: 86.4%; viability, T/C [2]: 58.3%; viability, T/C [3]: 37.9%; viability, T/C [4]: 24.8%; viability, T/C [27]: 100%; viability, T/C [28]: 99.5%; viability, T/C [5]: 73.8%; viability, T/C [6]: 60.1%; viability, T/C [7]: 42.4%; viability, T/C [8]: 25.8%; viability, T/C [29]: 107%; viability, T/C [30]: 98.9%; viability, T/C [9]: 71.5%; viability, T/C [10]: 49%; viability, T/C [11]: 42.3%; viability, T/C [12]: 23.9%; viability, T/C [31]: 94.1%; viability, T/C [32]: 81.8%; viability, T/C [13]: 74.9%; viability, T/C [14]: 49.9%; viability, T/C [15]: 32.4%; viability, T/C [16]: 23.1%; viability, T/C [33]: 73.2%; viability, T/C [34]: 71.5%; viability, T/C [17]: 63.2%; viability, T/C [18]: 46%; viability, T/C [19]: 29.4%; viability, T/C [20]: 21.3%; viability, T/C [35]: 73.2%; viability, T/C [36]: 67.7%; viability, T/C [21]: 48.1%; viability, T/C [22]: 39.4%; viability, T/C [23]: 28.9%; viability, T/C [24]: 19.3%

Reference: PubChem BioAssay AID1963425 (Molecular Pharmacology Branch, DTP, NCI, 2024)
